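Growth conditions: 96-well plates. Treatment: test compound, 48 hours, 5 concentrations. Analysis: linear interpolation between bracketing concentrations; unreached endpoints set to highest concentration. GI50 is the concentration that inhibits growth by half.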 Active and inactive are the calls of the source. Rule as the data show it: active = GI50 up to about 1.1 µM and inactive = higher.
Columns and labels:
Assay in all cases: NCI-60 cell line screen, 48 h
RPMI-8226 = tested on: RPMI-8226
SF-295 = tested on: SF-295
IGROV-1 = tested on: IGROV-1
SW-620 = tested on: SW-620
OVCAR-3 = tested on: OVCAR-3
HL-60 = tested on: HL-60
SF-268 = tested on: SF-268
SK-MEL-28 = tested on: SK-MEL-28
SNB-75 = tested on: SNB-75
MOLT-4 = tested on: MOLT-4
HT-29 = tested on: HT-29
ACHN = tested on: ACHN
SK-MEL-2 = tested on: SK-MEL-2
LOX IMVI = tested on: LOX IMVI
KM12 = tested on: KM12
M14 = tested on: M14

Measured: GI50

N#Cc1c(-c2ccccc2)c(-c2ccccc2)cc2c(=O)c3ccc(Cl)cc3[nH]c12
inactive: RPMI-8226 > 100 µM | SF-295 > 100 µM | IGROV-1 > 100 µM | SW-620 > 100 µM | OVCAR-3 > 100 µM | HL-60 > 100 µM | SF-268 > 100 µM | SK-MEL-28 > 100 µM | SNB-75 > 100 µM | MOLT-4 > 100 µM | HT-29 > 100 µM | ACHN > 100 µM | SK-MEL-2 > 100 µM

O=C1[C@@H]2C3c4ccccc4C([C@@H]2C(=O)N1c1ccccc1)S3(=O)=O
inactive: RPMI-8226 > 100 µM | SF-295 81.7 µM | IGROV-1 > 100 µM | LOX IMVI 47.2 µM | SW-620 51.4 µM | KM12 > 100 µM | OVCAR-3 > 100 µM | HL-60 > 100 µM | SF-268 38.9 µM | M14 > 100 µM | SNB-75 65.3 µM | MOLT-4 > 100 µM | HT-29 > 100 µM | ACHN > 100 µM | SK-MEL-2 > 100 µM

CCOC(=O)C12CCCC1(O)N(NC(N)=O)C(C)=C2C(=O)OC (configuration not stated)
inactive: RPMI-8226 > 100 µM | SF-295 > 100 µM | IGROV-1 > 100 µM | LOX IMVI > 100 µM | SW-620 > 100 µM | KM12 > 100 µM | OVCAR-3 > 100 µM | HL-60 > 100 µM | SF-268 > 100 µM | SK-MEL-28 > 100 µM | M14 > 100 µM | MOLT-4 > 100 µM | HT-29 > 100 µM | ACHN > 100 µM | SK-MEL-2 > 100 µM

O=C(N/C(=C\c1ccc(Cl)cc1)c1nc2ccccc2[nH]1)c1ccccc1
inactive: RPMI-8226 16.7 µM | IGROV-1 19.4 µM | LOX IMVI 16.2 µM | SW-620 27.4 µM | KM12 16.8 µM | OVCAR-3 19.6 µM | SF-268 16.3 µM | SK-MEL-28 18.5 µM | M14 18.7 µM | SNB-75 19.7 µM | MOLT-4 16.5 µM | HT-29 27.8 µM | ACHN 27.5 µM | SK-MEL-2 19.1 µM

Cc1cc(O)nc(CNC(=O)c2ccc3ccccc3c2)n1
inactive: SF-295 > 100 µM | IGROV-1 > 100 µM | LOX IMVI > 100 µM | SW-620 > 100 µM | KM12 > 100 µM | OVCAR-3 > 100 µM | HL-60 > 100 µM | SF-268 > 100 µM | SK-MEL-28 > 100 µM | M14 > 100 µM | SNB-75 > 100 µM | MOLT-4 > 100 µM | HT-29 > 100 µM | ACHN > 100 µM | SK-MEL-2 > 100 µM

CCOC(=O)NC/C=C/COC1CCCCO1 (configuration not stated)
inactive: RPMI-8226 > 100 µM | IGROV-1 > 100 µM | SW-620 > 100 µM | KM12 > 100 µM | HL-60 > 100 µM | SF-268 > 100 µM | SK-MEL-28 > 100 µM | M14 > 100 µM | SNB-75 > 100 µM | MOLT-4 > 100 µM | ACHN > 100 µM | SK-MEL-2 > 100 µM

CC1=CCC23C(C1)OC(Br)(C=CC2(C)O)C3(C)C (configuration not stated)
inactive: SF-295 > 100 µM | IGROV-1 > 100 µM | LOX IMVI > 100 µM | SW-620 > 100 µM | KM12 > 100 µM | HL-60 > 100 µM | SF-268 > 100 µM | SK-MEL-28 > 100 µM | SNB-75 > 100 µM | HT-29 > 100 µM | ACHN > 100 µM | SK-MEL-2 > 100 µM

CC(=O)OC1CC2CCN3C(=O)c4cc5c(cc4[C@H](C1OC(C)=O)C23)OCO5 (some centres not stated)
inactive: RPMI-8226 > 100 µM | SF-295 > 100 µM | IGROV-1 > 100 µM | LOX IMVI > 100 µM | SW-620 > 100 µM | KM12 > 100 µM | OVCAR-3 > 100 µM | HL-60 > 100 µM | SF-268 > 100 µM | SK-MEL-28 > 100 µM | M14 > 100 µM | SNB-75 > 100 µM | MOLT-4 > 100 µM | HT-29 > 100 µM | ACHN > 100 µM

O=C1CC[C@H](NC(=O)Cc2ccccc2)C(=O)N1 [ANTINEOPLASTON A10]
inactive: RPMI-8226 > 1250 µM | SF-295 > 1250 µM | IGROV-1 > 1250 µM | LOX IMVI > 1250 µM | SW-620 > 1250 µM | KM12 > 1250 µM | HL-60 > 1250 µM | SF-268 > 1250 µM | SK-MEL-28 > 1250 µM | M14 > 1250 µM | SNB-75 877 µM | MOLT-4 > 1250 µM | HT-29 > 1250 µM | ACHN > 1250 µM | SK-MEL-2 > 1250 µM

CCN1C2=NC(=O)N(C)C(=O)C2(Cl)C(C(SC)S(=O)(=O)c2ccc(C)cc2)c2ccccc21 (configuration not stated)
inactive: RPMI-8226 12.7 µM | SF-295 51.8 µM | IGROV-1 76.9 µM | LOX IMVI 31.3 µM | SW-620 31.6 µM | OVCAR-3 24.1 µM | HL-60 4.2 µM | SF-268 39.2 µM | SK-MEL-28 24.3 µM | M14 24.2 µM | SNB-75 20.7 µM | MOLT-4 3.7 µM | HT-29 34.8 µM | SK-MEL-2 55.3 µM

COC(=O)c1cc2c(=O)n(C)c3ccccc3n2c1C(=O)OC
inactive: RPMI-8226 71.9 µM | SF-295 34.3 µM | IGROV-1 56.6 µM | LOX IMVI 45.2 µM | SW-620 64.9 µM | KM12 63.1 µM | OVCAR-3 30 µM | SF-268 30.3 µM | SK-MEL-28 70.5 µM | M14 47.9 µM | SNB-75 16.1 µM | MOLT-4 > 100 µM | HT-29 67.5 µM | ACHN 83.2 µM | SK-MEL-2 > 100 µM

C=CCC12CCC(=O)[C@@]1(C)CC=C(O)C2=O (some centres not stated)
inactive: RPMI-8226 > 100 µM | SF-295 > 100 µM | IGROV-1 > 100 µM | LOX IMVI > 100 µM | SW-620 > 100 µM | KM12 > 100 µM | OVCAR-3 > 100 µM | HL-60 > 100 µM | SF-268 > 100 µM | SK-MEL-28 > 100 µM | M14 > 100 µM | SNB-75 > 100 µM | MOLT-4 > 100 µM | HT-29 > 100 µM | ACHN > 100 µM

N#Cc1ccc(Cc2ccccn2)cc1Cl
inactive: SF-295 > 100 µM | IGROV-1 > 100 µM | LOX IMVI > 100 µM | SW-620 > 100 µM | KM12 > 100 µM | HL-60 > 100 µM | SF-268 > 100 µM | SK-MEL-28 > 100 µM | MOLT-4 > 100 µM | HT-29 > 100 µM | ACHN > 100 µM | SK-MEL-2 > 100 µM

COc1ccc(/C=C2\C(=O)Nc3ccccc32)cc1OC
inactive: RPMI-8226 23.1 µM | SF-295 > 100 µM | IGROV-1 > 100 µM | LOX IMVI 45.3 µM | SW-620 45.1 µM | KM12 85.7 µM | HL-60 46.7 µM | SF-268 > 100 µM | SK-MEL-28 > 100 µM | M14 > 100 µM | SNB-75 24.5 µM | MOLT-4 > 100 µM | HT-29 > 100 µM | ACHN > 100 µM | SK-MEL-2 > 100 µM
